Assays:
CBD-TetR [1] = target: CBD-TetR (Escherichia coli, UniProt P04483); conditions: pH 7.5, room temperature; allosteric effector
HosA = HosA (Escherichia coli, UniProt P69782); assay: EMSA, dissociation of operator dsDNA; format: binding; conditions: pH 7.5, room temperature; allosteric effector
CBD-HosA = CBD-HosA (Escherichia coli, UniProt P69782); assay: EMSA, dissociation of operator dsDNA; format: binding; conditions: 1.8 mM p-HBA in the specificity test; pH 7.5, room temperature; allosteric effector; also Cas12a read-out with immobilised protein
CBD-HucR [2] = target: T1, CBD-HucR (Deinococcus radiodurans, UniProt Q9RV71); assay: EMSA, dissociation of operator dsDNA; format: binding; conditions: 0.05-500 uM uric acid; pH 7.5, room temperature; allosteric effector; also Cas12a read-out with immobilised protein
T1 construct: gene DR_1159
T1 sequence (Q9RV71 1-181): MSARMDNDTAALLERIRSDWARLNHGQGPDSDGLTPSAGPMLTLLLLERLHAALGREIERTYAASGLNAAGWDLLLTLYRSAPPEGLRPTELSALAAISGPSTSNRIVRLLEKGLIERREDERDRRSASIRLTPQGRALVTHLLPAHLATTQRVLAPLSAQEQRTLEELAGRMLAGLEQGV

CBD-HucR [3] = target: T2, CBD-HucR (UniProt Q9RV71 1-181); assay: EMSA; 25-200 nM protein, 40 nM DNA; EMSA: 10 mM Tris-HCl pH 7.5, 100 mM KCl, 1 mM EDTA, 0.1 mM DTT, 5% glycerol, 0.01 mg/mL BSA, room temperature 30 min; 1.5% agarose gel in Tris-borate-EDTA at 4; conditions: protein: recombinant; tags: CBD fused via (SGGGG)4 linker; His tag; chain copies: 2; blunt
T2 sequence: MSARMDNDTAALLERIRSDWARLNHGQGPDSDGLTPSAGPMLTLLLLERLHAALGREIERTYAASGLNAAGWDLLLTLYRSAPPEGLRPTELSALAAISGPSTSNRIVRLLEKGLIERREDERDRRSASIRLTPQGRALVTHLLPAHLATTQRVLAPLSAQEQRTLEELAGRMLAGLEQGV

CBD-TetR [4] = target: CBD-TetR (UniProt P04483 1-207); assay: as above; conditions: protein: recombinant; tags: CBD fused via (SGGGG)4 linker; His tag; chain copies: 2; blunt
Chain of CBD-TetR (UniProt P04483 1-207) (P04483 whole entry, the tested form may be a part): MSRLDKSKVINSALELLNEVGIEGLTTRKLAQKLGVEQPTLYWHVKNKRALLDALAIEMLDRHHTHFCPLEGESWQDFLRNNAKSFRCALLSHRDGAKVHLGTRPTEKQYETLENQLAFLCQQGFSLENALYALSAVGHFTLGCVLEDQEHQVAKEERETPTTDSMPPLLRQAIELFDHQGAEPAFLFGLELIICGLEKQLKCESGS

Chain of CBD-HosA (P69782 whole entry): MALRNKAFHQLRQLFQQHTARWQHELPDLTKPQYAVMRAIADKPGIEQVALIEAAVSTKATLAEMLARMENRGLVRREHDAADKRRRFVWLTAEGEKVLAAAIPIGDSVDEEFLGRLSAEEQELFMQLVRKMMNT
Chain of HosA (P69782 whole entry): as above
Chain of CBD-TetR (Escherichia coli, UniProt P04483) (P04483 whole entry): as the sequence (P04483 whole entry, the tested form may be a part) above

CN(C)[C@@H]1C(=O)C(C(N)=O)=C(O)[C@@]2(O)C(=O)C3=C(O)c4c(O)cccc4[C@@](C)(O)[C@H]3C[C@@H]12 [tetracycline]
EMSA, dissociation of operator dsDNA (CBD-TetR [1]): Both CBD-TetR and CBD-HosA show perfect dsDNA-binding and effector-induced allosteric activities

O=C(O)c1ccc(O)cc1 [p-HBA, p-hydroxybenzoic acid]
EMSA, dissociation of operator dsDNA (HosA): there were no significant differences between HosA and CBD-HosA on gel-shift images | EMSA, dissociation of operator dsDNA (CBD-HosA): p-HBA induced the almost complete dissociation of dsDNA from the CBD–HosA–dsDNA complex

O=c1[nH]c(=O)c2[nH]c(=O)[nH]c2[nH]1 [uric acid]
EMSA, dissociation of operator dsDNA (CBD-HucR [2]): increasing amounts of dsDNA dissociated from the CBD–HucR–dsDNA complex

B1: dsDNA(HucR) (dsDNA)
DNA 1: TACTGAGCCATGTATCCAGGTCATTGTACTTAGATGTCTACCTAAGCTCTGACAGTTCCA
DNA 2: TGGAACTGTCAGAGCTTAGGTAGACATCTAAGTACAATGACCTGGATACATGGCTCAGTA
binding result (CBD-HucR [3]): binds

B2: dsDNA(TetR) (dsDNA)
DNA 1: TGAGCCATGTATCCAGGTCATTTGTCCCTATCAGTGATAGAGAAGCTCTGACAGTTCCA
DNA 2: TGGAACTGTCAGAGCTTCTCTATCACTGATAGGGACAAATGACCTGGATACATGGCTCA
binding result (CBD-TetR [4]): binds
